Results taken from US8163921B2, “Hepatitis C virus inhibitors” (Bristol-Myers Squibb Company, priority 2008, dated 2012).
pEC50, pIC50: −log10 of the molar value.

How the values were obtained:
[1] = tested on: HCV replicon in HUH-7 cells; experiment: HCV replicon FRET assay; assay type: cell-based, HCV strain 1b; conditions: Hepatitis C virus, Huh-7; read-out: EC50 value in the replicon FRET assay
[2] = tested on: HCV replicon (Renilla luciferase) in HUH-7 cells; experiment: HCV replicon luciferase reporter assay; assay type: cell-based, HCV strain 1b
Text: An HCV replicon whole cell system was established as described by Lohmann V, Korner F, Koch J, Herian U, Theilmann L, Bartenschlager R., Science 285(5424):110-3 (1999). This system enabled us to evaluate the effects of our HCV Protease compounds on HCV RNA replication. Briefly, using the HCV strain 1b sequence described in the Lohmann paper (Assession number:AJ238799), an HCV cDNA was synthesized by Operon Technologies, Inc. (Alameda, Calif.), and the full-length replicon was then assembled in plasmid pGem9zf(+) (Promega, Madison, Wis.) using standard molecular biology techniques. […]
As a secondary assay, EC50 determinations from the replicon FRET assay were confirmed in a replicon luciferase reporter assay. […] Following 4 days in a 37° C./5% CO2 incubator, cells were analyzed for Renilla Luciferase activity using the Promega Dual-Glo Luciferase Assay System. […] Plates were read on a Packard TopCount NXT using a luminescence program. The percentage inhibition was calculated using the formula below: % control=average luciferase signal in experimental wells (+compound) average luciferase signal in DMSO control wells (−compound)
The values were graphed and analyzed using XLfit to obtain the EC50 value.

[3] = target: T1, human neutrophil elastase (HNE) (Homo sapiens, UniProt P08246); experiment: Specificity assay, elastase (HNE); assay type: biochemical; conditions: read-out: HLE activity in the specificity assays
T1 construct: purchased Sigma, EMDbiosciences
T1 sequence (P08246 30-247 limits assumed): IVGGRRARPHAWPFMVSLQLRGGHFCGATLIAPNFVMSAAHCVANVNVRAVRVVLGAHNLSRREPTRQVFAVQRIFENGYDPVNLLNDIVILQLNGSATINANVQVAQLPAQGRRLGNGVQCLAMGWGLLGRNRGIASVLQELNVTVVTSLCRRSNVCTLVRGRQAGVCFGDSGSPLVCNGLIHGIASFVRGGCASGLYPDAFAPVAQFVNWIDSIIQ
Protocol: (§1) The specificities of compounds of the present disclosure were determined against a variety of serine proteases: human neutrophil elastase (HNE), porcine pancreatic elastase (PPE) and human pancreatic chymotrypsin and one cysteine protease: human liver cathepsin B. In all cases a 96-well plate format protocol using a fluorometric Amino-Methyl-Coumarin (AMC) substrate specific for each enzyme was used as described previously (PCT Patent Application No. WO 00/09543) with some modifications to the serine protease assays. All enzymes were purchased from Sigma, EMDbiosciences while the substrates were from Bachem, Sigma and EMDbiosciences.
(§2) Compound concentrations varied from 100 to 0.4 μM depending on their potency. The enzyme assays were each initiated by addition of substrate to enzyme-inhibitor pre-incubated for 10 min at room temperature and hydrolysis to 15% conversion as measured on cytofluor.
(§3) 50 mM Tris-HCl, pH 8.0, 50 mM NaCl, 0.1 mM EDTA, 3% DMSO, 0.02% Tween-20, 5 μM succ-AAPV-AMC and 20 nM HNE or 8 nM PPE;
(§4) The percentage of inhibition was calculated using the formula: [1−((UVinh−UVblank)/(UVctl−UVblank))]×100
(§5) A non-linear curve fit was applied to the inhibition-concentration data, and the 50% effective concentration (IC50) was calculated by the use of Excel XLfit software.

[4] = target: T2, porcine pancreatic elastase (PPE) (Sus scrofa, UniProt P00772); experiment: Specificity assay, PPE; assay type: biochemical; conditions: read-out: PPE activity in the specificity assays
T2 construct: purchased Sigma, EMDbiosciences
T2 sequence (P00772 27-266): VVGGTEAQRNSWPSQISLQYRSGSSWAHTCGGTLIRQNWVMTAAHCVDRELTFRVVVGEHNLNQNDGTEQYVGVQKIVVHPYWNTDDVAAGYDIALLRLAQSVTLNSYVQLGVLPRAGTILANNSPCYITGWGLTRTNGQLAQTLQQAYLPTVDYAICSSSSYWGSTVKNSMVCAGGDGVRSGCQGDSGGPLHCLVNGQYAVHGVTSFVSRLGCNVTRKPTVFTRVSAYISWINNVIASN
Protocol: as §1, §2, §3, §4, §5

Compound: C=C[C@@H]1C[C@]1(NC(=O)[C@@H]1C[C@@H](Oc2ncc(OC)c3ccc(Cl)cc23)CN1C(=O)[C@@H](Nc1nc(-c2cccc(OC(F)(F)F)c2)cs1)C(C)(C)C)C(=O)NS(=O)(=O)C1CC1 [Example 68]
- pEC50 [1]: 8.24
- pEC50 [2]: 8.70
- pIC50 [3]: < 4.30
- pIC50 [4]: < 4.30
